Laboratory results from US9505765B2, “4-alkoxy/aralkoxy-5-substituted-pyrrolopyrimidine compounds as TAK1 inhibitors in disease treatment” (Confluence Life Sciences Inc., priority 2012, dated 2016).

How the values were obtained:
[1] = target: TAK1-TAB1 (Homo sapiens (Human), UniProt O43318); test: TAK1-TAB1 competitive binding assay (LanthaScreen), without pre-incubation; conditions: 10 nM TAK1-TAB1, 100 nM kinase tracer-236, read-out: TAK1-TAB1 Inhibition IC50
Text: TAK1-TAB1 Binding Inhibitory Potency: The ability of candidate compounds to interact with TAK1-TAB1 is quantitated by a competitive binding assay using the LanthaScreen technology developed by Life Technologies. This assay is based on the binding of a proprietary, Alexa Fluor® 647-labeled, ATP-competitive kinase inhibitor (kinase tracer-236) to the TAK1-TAB1 construct in presence of a europium-conjugated antibody, resulting in a FRET (fluorescence resonance energy transfer) signal. Displacement of the kinase tracer by compound results in a lower emission ratio upon excitation of the europium chelate. Candidate compounds are designed as potential irreversible inhibitors of TAK1-TAB1, capable of ligating to an active site cysteine residue. The time dependent nature of irreversible inhibition is investigated by performing the binding assay with and without a pre-incubation of compound and TAK1-TAB1.
The inhibitory potency of candidate compounds is measured in 20 mM HEPES pH 7.5, 10 mM MgCl2, 0.01% BSA, 0.0005% Tween-20, and 2% DMSO in the presence of 10 nM TAK1-TAB1, 2 nM Eu-anti-his antibody, and 100 nM kinase tracer-236 using a 384-well plate format. Background signal is defined in the absence of TAK1-TAB1 and uninhibited signal is defined in the presence of vehicle (2% DMSO) alone. Compounds were evaluated in an 11 point dose-response ranging from 20 μM to 0.34 nM. The binding assays are performed under two conditions to evaluate time dependence of inhibition. For the pre-incubation assay, TAK1-TAB1 and Eu-anti-his antibody are preincubated with compound or vehicle for two hours prior to the addition of kinase tracer. The non-preincubated assay is run in which TAK1-TAB1 and Eu-anti-his antibody are added to a mixture of compound and kinase tracer. IC50 values of compounds are determined using a 4 parameter logistical fit of emission ratio as a function of the concentration of compound.
Compounds were tested in accordance with the above described assay, without pre-incubation, yielding the values described below: […]

[2] = test system: A549 cells; test: IL-1β stimulated IL-6 Production in A549 cells; format: cell-based; conditions: Homo sapiens, 1 ng/ml rhIL1β, 18 hrs; for IC50: read-out: IL-6 Production IC; for activity at 5 µM: 5 μM compound, read-out: IL-6 Production % Control 5 μM; for activity at 50 µM: 50 μM compound, read-out: IL-6 Production % Control 50 μM
Experimental: IL-1β stimulated IL-6 Production in A549 cells: The cellular efficacy of compound candidates is determined using the human lung epithelial cell line A549 (ATCC #CCL-185), based upon the methods of Wheeler et al. (2004) J. Nutrition 134, 1039-1044, and Eda et al. (2011) Cell Biol. Int. 35, 355-358. A549 cells produce a number of cytokines (IL6, IL8 and TNFα) in response to stimulation with IL1β. To induce the production of inflammatory mediators, A549 cells are plated at a final concentration of 3×10^5 cells/well of a 96 well flat bottom plate in F12-K medium supplemented with 10% fetal bovine serum, 100 units/ml penicillin and 100 μg/ml streptomycin (Gibco BRL Life Technologies). Cells are treated with or without inhibitors for 3 hrs then stimulated with 1 ng/ml rhIL1β (R & D Systems) for an additional 18 hrs at 37° C. with 5% CO2. The supernatants are removed and stored at −20° C. until they are to be assayed. The levels of inflammatory mediators are determined using commercial MSD cytokine kits (Meso Scale Discovery) as per the manufacturer's instructions. Standard curves are based on 7 steps of 4× serial dilutions, with a wide dynamic range of 10000 pg/ml to 2.4 pg/ml, and the blank in triplicate. Lower limit of detection (LLOD) is calculated at the commonly used 3× the standard deviation of the blank.
Compounds were tested in accordance with the above described assay, yielding the values described below: […]

Sequence of TAK1-TAB1 (O43318 other isoform, or with tags, fused parts or gaps): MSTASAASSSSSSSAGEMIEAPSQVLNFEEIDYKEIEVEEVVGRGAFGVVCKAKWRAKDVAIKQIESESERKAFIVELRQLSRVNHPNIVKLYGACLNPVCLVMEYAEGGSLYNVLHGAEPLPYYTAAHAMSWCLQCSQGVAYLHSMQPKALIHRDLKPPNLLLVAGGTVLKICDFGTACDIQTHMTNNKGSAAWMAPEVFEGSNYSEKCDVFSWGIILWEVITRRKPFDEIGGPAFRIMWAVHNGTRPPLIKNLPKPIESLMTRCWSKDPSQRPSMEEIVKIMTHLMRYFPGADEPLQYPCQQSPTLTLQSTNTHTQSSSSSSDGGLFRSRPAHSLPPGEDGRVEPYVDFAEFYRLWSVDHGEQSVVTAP

SMILES	IC50 [1]	IC50 [2]	activity at 5 µM [2]	activity at 50 µM [2]
CC(C)COc1ncnc2[nH]cc(/C=C/C(=O)NC[C@H](C)O)c12 [Example 182, (S,E)-N-(2-hydroxypropyl)-3-(4-isobutoxy-7H-pyrrolo[2,3-d]pyrimidin-5-yl)acrylamide]	1600 nM	3400 nM	36%	1%
CC(C)COc1ncnc2[nH]cc(C#N)c12 [Example 1, 4-isobutoxy-7H-pyrrolo[2,3-d]pyrimidine-5-carbonitrile]	560 nM		83%	6%
CNC(=O)/C=C/c1c[nH]c2ncnc(OCC(C)C)c12 [Example 39, (E)-3-(4-isobutoxy-7H-pyrrolo[2,3-d]pyrimidin-5-yl)-N-methylacrylamide]	41 nM	43 nM	0%	0%
NC(=O)/C=C/c1c[nH]c2ncnc(OCc3ccccc3)c12 [Example 96, (E)-3-(4-benzyloxy-7H-pyrrolo[2,3-d]pyrimidin-5-yl)-acrylamide]	730 nM		78%	0%
CC(C)COc1ncnc2[nH]cc(/C=C/C(=O)N(C)C)c12 [Example 184, (E)-3-(4-isobutoxy-7H-pyrrolo[2,3-d]pyrimidin-5-yl)-N,N-dimethylacrylamide]	97 nM	190 nM	1%	0%
CC(C)COc1ncnc2[nH]cc(/C=C(\Cl)C(N)=O)c12 [Example 196, (Z)-2-chloro-3-(4-isobutoxy-7H-pyrrolo[2,3-d]pyrimidin-5-yl)acrylamide]	360 nM	750 nM	0%	0%
CC(C)COc1ncnc2[nH]cc(C=C(F)C(N)=O)c12 (stereo in doubt) [Example 200, (E) 2-fluoro-3-(4-isobutoxy-7H-pyrrolo[2,3-d]pyrimidin-5-yl)-acrylamide]	860 nM		61%	14%
COC(=O)/C=C/c1c[nH]c2ncnc(OCC(C)C)c12 [Example 176, (E)-methyl 3-(4-isobutoxy-7H-pyrrolo[2,3-d]pyrimidin-5-yl)acrylate]	200 nM		1%	0%
